Our source for the IC50 values is patent US20260035382A1, “COMPOUNDS AS SUMO ACTIVATING ENZYME INHIBITORS” (WIGEN BIOMEDICINE TECHNOLOGY (SHANGHAI) CO., LTD., priority 2022, published 2026).

In general, IC50 refers to the point on the concentration scale where inhibition reaches its midpoint.

SAE, sequence (Q9UBT2 whole entry): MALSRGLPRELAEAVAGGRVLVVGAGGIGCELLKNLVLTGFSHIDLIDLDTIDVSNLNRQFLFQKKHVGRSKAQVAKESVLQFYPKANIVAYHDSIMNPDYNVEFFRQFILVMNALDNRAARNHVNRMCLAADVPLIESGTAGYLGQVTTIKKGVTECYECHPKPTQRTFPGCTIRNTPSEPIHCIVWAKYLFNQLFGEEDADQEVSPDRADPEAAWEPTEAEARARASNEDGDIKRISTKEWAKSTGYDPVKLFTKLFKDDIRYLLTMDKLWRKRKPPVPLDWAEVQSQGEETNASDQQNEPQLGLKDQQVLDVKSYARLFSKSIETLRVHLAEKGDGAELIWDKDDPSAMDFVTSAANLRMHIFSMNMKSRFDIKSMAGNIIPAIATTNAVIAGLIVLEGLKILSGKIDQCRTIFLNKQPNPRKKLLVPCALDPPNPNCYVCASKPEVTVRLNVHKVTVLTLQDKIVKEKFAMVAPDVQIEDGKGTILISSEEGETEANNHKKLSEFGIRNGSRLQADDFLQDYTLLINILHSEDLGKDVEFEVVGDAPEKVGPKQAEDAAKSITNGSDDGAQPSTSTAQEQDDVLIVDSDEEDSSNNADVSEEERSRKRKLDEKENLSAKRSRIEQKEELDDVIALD
SAE, sequence (Q9UBE0 whole entry partner): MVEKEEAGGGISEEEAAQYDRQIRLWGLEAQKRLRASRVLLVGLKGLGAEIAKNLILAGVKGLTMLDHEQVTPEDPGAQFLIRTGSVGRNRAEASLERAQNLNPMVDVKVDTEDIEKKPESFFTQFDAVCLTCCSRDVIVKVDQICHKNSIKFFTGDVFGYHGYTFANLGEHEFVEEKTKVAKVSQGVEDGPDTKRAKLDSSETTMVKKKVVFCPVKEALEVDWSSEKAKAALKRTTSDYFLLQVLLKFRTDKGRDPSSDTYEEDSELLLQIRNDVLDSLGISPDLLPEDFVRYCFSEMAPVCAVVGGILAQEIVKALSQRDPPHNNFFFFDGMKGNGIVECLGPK

One test concerns the target SAE (Homo sapiens (Human), UniProt Q9UBT2). Put plainly: In vitro inhibitory activity assay against SAE (SUMO-2/3 immunofluorescence in HCT116 cells). Format: cell-based. The following applies: 6 h incubation, class symbols, read-out: SUMO IF IC50. The procedure, abridged: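 HCT116 cells treated with compounds for 6 h at 37 °C, then fixed, permeabilized and immunostained for SUMO-2/3 with FITC secondary detection. Fluorescence compared with DMSO control to give inhibition rate and IC50.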
`NS(=O)(=O)OC[C@H]1C[C@@H](Nc2ncncc2C(=O)c2cc3c(s2)CSC[C@@]32NCCc3ncc(Cl)cc32)C[C@@H]1O` [Compound 149]: the IC50 is above 0.2 µM.
`NS(=O)(=O)CC[C@H]1C[C@@H](Nc2ncncc2C(=O)c2cc3c(s2)CSC[C@]32NCCc3ncc(Cl)cc32)C[C@@H]1O` [Compound 150]: the concentration for half-maximal inhibition (IC50) is at most 0.05 µM.
On the same count and under the same terms, to `NS(=O)(=O)OC[C@H]1C[C@@H](Nc2ncncc2C(=O)c2cc3c(s2)CC2(CC2)CC32NCCc3ccc(Cl)cc32)C[C@@H]1O` (stereo partly drawn) [Compound 151] belongs at most 0.05 µM.
For `NS(=O)(=O)OC[C@H]1C[C@@H](Nc2ncncc2C(=O)c2cc3c(s2)CCC[C@@]32NCC3(CC3)c3ccc(Cl)cc32)C[C@@H]1O` [Compound 152], the IC50 is above 0.2 µM.
For `NS(=O)(=O)OC[C@H]1C[C@@H](Nc2ncncc2C(=O)c2cc3c(s2)CCC[C@]32NCC3(CC3)c3ccc(Cl)cc32)C[C@@H]1O` [Compound 153], the IC50 was at most 0.05 µM.
`NS(=O)(=O)OC[C@H]1C[C@@H](Nc2ncncc2C(=O)c2cc3c(s2)C(F)=CC32NCCc3ccc(Cl)cc32)C[C@@H]1O` (stereo partly drawn) [Compound 154]: the IC50 is at most 0.05 µM.
In the case of `NS(=O)(=O)OC[C@H]1C[C@@H](Nc2ncncc2C(=O)c2cc3c(s2)C(F)=C[C@@]32NCCc3ccc(Cl)cc32)C[C@@H]1O` [Compound 155], the IC50 was above 0.2 µM.
As to `NS(=O)(=O)OC[C@H]1C[C@@H](Nc2ncncc2C(=O)c2cc3c(s2)C(F)=C[C@]32NCCc3ccc(Cl)cc32)C[C@@H]1O` [Compound 156], the IC50 was at most 0.05 µM.
Take `CC1=CC2(NCCc3ccc(Cl)cc32)c2cc(C(=O)c3cncnc3N[C@@H]3C[C@H](COS(N)(=O)=O)[C@@H](O)C3)sc21` (stereo partly drawn) [Compound 157]: the IC50 was 0.05 to 0.2 µM.
With `CC1=C[C@@]2(NCCc3ccc(Cl)cc32)c2cc(C(=O)c3cncnc3N[C@@H]3C[C@H](COS(N)(=O)=O)[C@@H](O)C3)sc21` [Compound 158], the concentration for half-maximal inhibition (IC50) is above 0.2 µM.
Turning to `CC1=C[C@]2(NCCc3ccc(Cl)cc32)c2cc(C(=O)c3cncnc3N[C@@H]3C[C@H](COS(N)(=O)=O)[C@@H](O)C3)sc21` [Compound 159], the IC50 is at most 0.05 µM.
On to `NS(=O)(=O)OC[C@H]1C[C@@H](Nc2ncncc2C(=O)c2cc3c(s2)C(F)(F)CC32NCCc3ccc(Cl)cc32)C[C@@H]1O` (stereo partly drawn) [Compound 160], for which the IC50 was 0.05 to 0.2 µM.
On to `NS(=O)(=O)OC[C@H]1C[C@@H](Nc2ncncc2C(=O)c2cc3c(s2)C(F)(F)C[C@@]32NCCc3ccc(Cl)cc32)C[C@@H]1O` [Compound 161], for which the half-inhibitory concentration (IC50) was above 0.2 µM.
With `NS(=O)(=O)OC[C@H]1C[C@@H](Nc2ncncc2C(=O)c2cc3c(s2)C(F)(F)C[C@]32NCCc3ccc(Cl)cc32)C[C@@H]1O` [Compound 162], the IC50 was 0.05 to 0.2 µM.
For `NS(=O)(=O)OC[C@H]1C[C@@H](Nc2ncncc2C(=O)c2cc3c(s2)CCCC32NC(=O)Cc3ccc(Cl)cc32)C[C@@H]1O` (stereo partly drawn) [Compound 163], the concentration for half-maximal inhibition (IC50) is above 0.2 µM.
Take `NS(=O)(=O)OC[C@H]1C[C@@H](Nc2ncncc2C(=O)c2cc3c(s2)CCC[C@@]32NC(=O)Cc3ccc(Cl)cc32)C[C@@H]1O` [Compound 164]: the IC50 was above 0.2 µM.
Consider `NS(=O)(=O)OC[C@H]1C[C@@H](Nc2ncncc2C(=O)c2cc3c(s2)CCC[C@]32NC(=O)Cc3ccc(Cl)cc32)C[C@@H]1O` [Compound 165], for which the 50% inhibitory concentration (IC50) is above 0.2 µM.
On to `NS(=O)(=O)OC[C@H]1C[C@@H](Nc2ncncc2C(=O)c2cc3c(s2)C(=O)CC32NCCc3ccc(Cl)cc32)C[C@@H]1O` (stereo partly drawn) [Compound 166], for which the concentration for half-maximal inhibition (IC50) was in the range of 0.05 to 0.2 µM.
As for `NS(=O)(=O)OC[C@H]1C[C@@H](Nc2ncncc2C(=O)c2cc3c(s2)C(=O)C[C@@]32NCCc3ccc(Cl)cc32)C[C@@H]1O` [Compound 167], the IC50 is above 0.2 µM.
The same measure, in the same setting: to `NS(=O)(=O)OC[C@H]1C[C@@H](Nc2ncncc2C(=O)c2cc3c(s2)C(=O)C[C@]32NCCc3ccc(Cl)cc32)C[C@@H]1O` [Compound 168] belongs 0.05 to 0.2 µM; to `NS(=O)(=O)OC[C@H]1C[C@@H](Nc2ncncc2C(=O)c2cc3c(s2)C=C[C@@]32NCCc3ccc(F)cc32)C[C@@H]1O` [Compound 177], above 0.2 µM.
With `NS(=O)(=O)OC[C@H]1C[C@@H](Nc2ncncc2C(=O)c2cc3c(s2)C=C[C@]32NCCc3ccc(F)cc32)C[C@@H]1O` [Compound 178], the 50% inhibitory concentration (IC50) is at most 0.05 µM.
As to `COc1ccc2c(c1)[C@]1(CCCc3sc(C(=O)c4cncnc4N[C@@H]4C[C@H](COS(N)(=O)=O)[C@@H](O)C4)cc31)NCC2` [Compound 179], the 50% inhibitory concentration (IC50) is above 0.2 µM.
For `COc1ccc2c(c1)[C@@]1(CCCc3sc(C(=O)c4cncnc4N[C@@H]4C[C@H](COS(N)(=O)=O)[C@@H](O)C4)cc31)NCC2` [Compound 180], the concentration for half-maximal inhibition (IC50) was above 0.2 µM.
Take `CCN1Cc2sc(C(=O)c3cncnc3N[C@@H]3C[C@H](COS(N)(=O)=O)[C@@H](O)C3)cc2C2(C1)NCCc1ccc(Cl)cc12` (stereo partly drawn) [Compound 181]: the IC50 was at most 0.05 µM.
Still for that read-out and setting: to `CC(C)N1Cc2sc(C(=O)c3cncnc3N[C@@H]3C[C@H](COS(N)(=O)=O)[C@@H](O)C3)cc2C2(C1)NCCc1ccc(Cl)cc12` (stereo partly drawn) [Compound 184] belongs at most 0.05 µM.
`NS(=O)(=O)OC[C@H]1C[C@@H](Nc2ncncc2C(=O)c2cc3c(s2)CN(CC(F)(F)F)CC32NCCc3ccc(Cl)cc32)C[C@@H]1O` (stereo partly drawn) [Compound 187]: the concentration for half-maximal inhibition (IC50) is at most 0.05 µM.
As to `C=CCN1Cc2sc(C(=O)c3cncnc3N[C@@H]3C[C@H](COS(N)(=O)=O)[C@@H](O)C3)cc2C2(C1)NCCc1ccc(Cl)cc12` (stereo partly drawn) [Compound 190], the IC50 is at most 0.05 µM.
With `C#CCN1Cc2sc(C(=O)c3cncnc3N[C@@H]3C[C@H](COS(N)(=O)=O)[C@@H](O)C3)cc2C2(C1)NCCc1ccc(Cl)cc12` (stereo partly drawn) [Compound 193], the half-maximal inhibitory concentration (IC50) was at most 0.05 µM.
On to `[2H]C1([2H])Cc2ccc(Cl)cc2C2(CCCc3sc(C(=O)c4cncnc4N[C@@H]4C[C@H](COS(N)(=O)=O)[C@@H](O)C4)cc32)N1` (stereo partly drawn) [Compound 196], for which the IC50 lay in the range of 0.05 to 0.2 µM.
Still for that read-out and setting: to `[2H]C1([2H])CNC2(CCCc3sc(C(=O)c4cncnc4N[C@@H]4C[C@H](COS(N)(=O)=O)[C@@H](O)C4)cc32)c2cc(Cl)ccc21` (stereo partly drawn) [Compound 199] belongs at most 0.05 µM.
On the same count and under the same terms, to `Cc1ccc2c(c1)[C@@]1(CCCc3sc(C(=O)c4cncnc4N[C@@H]4C[C@H](COS(N)(=O)=O)[C@@H](O)C4)cc31)NCC2` [Compound 202] belongs 0.05 to 0.2 µM.
Regarding `NS(=O)(=O)OC[C@H]1C[C@@H](Nc2ncncc2C(=O)c2cc3c(s2)CCC[C@]32NCCc3ccc(C4CC4)cc32)C[C@@H]1O` [Compound 203], the half-maximal inhibitory concentration (IC50) lay in the range of 0.05 to 0.2 µM.
In the case of `C#Cc1ccc2c(c1)[C@@]1(CCCc3sc(C(=O)c4cncnc4N[C@@H]4C[C@H](COS(N)(=O)=O)[C@@H](O)C4)cc31)NCC2` [Compound 204], the IC50 lay in the range of 0.05 to 0.2 µM.
Turning to `NS(=O)(=O)OC[C@H]1C[C@@H](Nc2ncncc2C(=O)c2cc3c(s2)CCC[C@]32NCCc3ccc(C(F)(F)F)cc32)C[C@@H]1O` [Compound 205], the half-inhibitory concentration (IC50) lay within 0.05 to 0.2 µM.

Still in this test, the particulars now being: 6 h incubation, numeric values, read-out: SUMO IF IC50.
For the compound `NS(=O)(=O)OC[C@H]1C[C@@H](Nc2ncncc2C(=O)c2cc3c(s2)C=C[C@@]32NCCc3ccc(Cl)cc32)C[C@@H]1O` [Compound 175], the IC50 is above 1 µM.
Still for that read-out and setting: to `NS(=O)(=O)OC[C@H]1C[C@@H](Nc2ncncc2C(=O)c2cc3c(s2)C=C[C@]32NCCc3ccc(Cl)cc32)C[C@@H]1O` [Compound 176] belongs 0.0232 µM; to `CCN1Cc2sc(C(=O)c3cncnc3N[C@@H]3C[C@H](COS(N)(=O)=O)[C@@H](O)C3)cc2[C@@]2(C1)NCCc1ccc(Cl)cc12` [Compound 182], above 1 µM.
With `CCN1Cc2sc(C(=O)c3cncnc3N[C@@H]3C[C@H](COS(N)(=O)=O)[C@@H](O)C3)cc2[C@]2(C1)NCCc1ccc(Cl)cc12` [Compound 183], the IC50 is 0.0187 µM.
Turning to `CC(C)N1Cc2sc(C(=O)c3cncnc3N[C@@H]3C[C@H](COS(N)(=O)=O)[C@@H](O)C3)cc2[C@@]2(C1)NCCc1ccc(Cl)cc12` [Compound 185], the IC50 is above 1 µM.
Turning to `CC(C)N1Cc2sc(C(=O)c3cncnc3N[C@@H]3C[C@H](COS(N)(=O)=O)[C@@H](O)C3)cc2[C@]2(C1)NCCc1ccc(Cl)cc12` [Compound 186], the IC50 was found to be 0.0163 µM.
On the same count and under the same terms, to `NS(=O)(=O)OC[C@H]1C[C@@H](Nc2ncncc2C(=O)c2cc3c(s2)CN(CC(F)(F)F)C[C@@]32NCCc3ccc(Cl)cc32)C[C@@H]1O` [Compound 188] belongs above 1 µM; to `NS(=O)(=O)OC[C@H]1C[C@@H](Nc2ncncc2C(=O)c2cc3c(s2)CN(CC(F)(F)F)C[C@]32NCCc3ccc(Cl)cc32)C[C@@H]1O` [Compound 189], 0.0245 µM.
Still for that read-out and setting: to `C=CCN1Cc2sc(C(=O)c3cncnc3N[C@@H]3C[C@H](COS(N)(=O)=O)[C@@H](O)C3)cc2[C@@]2(C1)NCCc1ccc(Cl)cc12` [Compound 191] belongs above 1 µM.
For `C=CCN1Cc2sc(C(=O)c3cncnc3N[C@@H]3C[C@H](COS(N)(=O)=O)[C@@H](O)C3)cc2[C@]2(C1)NCCc1ccc(Cl)cc12` [Compound 192], the IC50 stood at 0.0251 µM.
On to `C#CCN1Cc2sc(C(=O)c3cncnc3N[C@@H]3C[C@H](COS(N)(=O)=O)[C@@H](O)C3)cc2[C@@]2(C1)NCCc1ccc(Cl)cc12` [Compound 194], for which the IC50 was above 1 µM.
On the same count and under the same terms, to `C#CCN1Cc2sc(C(=O)c3cncnc3N[C@@H]3C[C@H](COS(N)(=O)=O)[C@@H](O)C3)cc2[C@]2(C1)NCCc1ccc(Cl)cc12` [Compound 195] belongs 0.0213 µM.
Same read-out and setting: to `[2H]C1([2H])Cc2ccc(Cl)cc2[C@]2(CCCc3sc(C(=O)c4cncnc4N[C@@H]4C[C@H](COS(N)(=O)=O)[C@@H](O)C4)cc32)N1` [Compound 197] belongs above 1 µM.
On to `[2H]C1([2H])Cc2ccc(Cl)cc2[C@@]2(CCCc3sc(C(=O)c4cncnc4N[C@@H]4C[C@H](COS(N)(=O)=O)[C@@H](O)C4)cc32)N1` [Compound 198], for which the IC50 came out at 0.0288 µM.
In the case of `[2H]C1([2H])CN[C@@]2(CCCc3sc(C(=O)c4cncnc4N[C@@H]4C[C@H](COS(N)(=O)=O)[C@@H](O)C4)cc32)c2cc(Cl)ccc21` [Compound 200], the IC50 is above 1 µM.
For `[2H]C1([2H])CN[C@]2(CCCc3sc(C(=O)c4cncnc4N[C@@H]4C[C@H](COS(N)(=O)=O)[C@@H](O)C4)cc32)c2cc(Cl)ccc21` [Compound 201], the IC50 was determined as 0.0265 µM.
